Measurements from patent US20120202287A1, “Stem Cell Culture Methods” (priority 2009, published 2012).

Test system: SA121 hESCs
Experiment: General (monolayer) differentiation on matrigel in defined media, qRT-PCR of stem cell and differentiation markers after 14 days
Format: cell-based, human
Set-up: key to NO EHNA EFFECT: X: NO EHNA EFFECT; key to Full EHNA effect: those which maintained at least 50% of the level of NANOG-expression in comparison to EHNA and those that inhibited the expression of PAX6 to 50% or less than the value untreated controls were considered to have an EHNA-like effect
Details: 10 uM, 14 days, qRT-PCR; for NO EHNA EFFECT: neither NANOG nor PAX6 criterion met; for Full EHNA effect: NANOG at least 50% of EHNA level and PAX6 50% or less of untreated control; for PARTIAL EHNA EFFECT (PAX6): only PAX6 50% or less of untreated control
Experimental: In order to ascertain the efficacy of the compounds of the present invention, each compound was tested to determine whether it can maintain the stem cell marker NANOG and/or block the differentiation marker PAX6 in the face of differentiating conditions in a manner similar to EHNA. Cells enzymatically passaged onto matrigel-coated dishes and grown for 2 weeks in defined media with or without (control) compound addition were analysed by qRT-PCR to determine the level of NANOG and PAX6 expression.
For general differentiation experiments cells were passaged with trypsin onto matrigel coated twelve-well dishes in the fully supportive media (see above). The media was then changed to defined media 24 h later and any experimental component was first added at this point. The media and experimental supplement were changed daily.
Cells were routinely harvested for qRT-PCR analysis 14 days after the first addition of the experimental compound.
Total RNA was extracted using QIAGEN RNeasy kits (Qiagen Inc, Valencia, Calif., http://www.qiagen.com) and DNaseI treatment was performed using Turbo DNA-Free (Ambion). The absence of genomic DNA was confirmed by quantitative PCR (qPCR) (see below) using glyceraldehyde-3-phosphate dehydrogenase (GAPDH) Taqman primers and probe (MWG). cDNA was synthesized with 2 μg total RNA in 20 μl using Superscript II according to manufacturers' instructions ((Carlsbad, Calif., http://www.Invitrogen.com)). For qPCR, cDNAs were diluted 1 in 60 and 5 μl used per sample in a 15 μl total reaction volume. Platinum pPCR supermix UDG with Rox (Carlsbad, Calif., http://www.Invitrogen.com) was used according to the manufacturer's instructions using an Applied Biosystems 7300 real time PCR system (Applied Biosystems, Warrington, UK, http://europe.appliedbiosystems.com). Each reaction contained 0.6 μM of each primer and Taqman probe (MWG). Biological and technical replicates were each performed in triplicate for each sample, standardised to the GAPDH housekeeping gene and relative expression values were calculated using the 7300 system SDS software (Applied Biosystems, Warrington, UK, http://europe.appliedbiosystems.com).
Cells were enzymatically passaged onto matrigel-coated dishes and grown for 2 weeks in defined media. After 14 days, qRT-PCR was utilised to analyse the expression of a variety of markers of pluripotency and differentiation. In the graphs in FIG. 9 the value 1 was set to the expression level of the gene in undifferentiated SA121 hESCs.
Cells were enzymatically passaged onto matrigel-coated dishes and grown for 2 weeks in defined media (1× confluent T25 tissue culture flask was passaged to 2×12 well dishes) with or without (control) compound addition. All compounds were added at 10 uM and each was performed in triplicate. Media and compounds were changed every 48 hours. After 14 days RNA was isolated and qRT-PCR was utilised to analyse the expression of NANOG and PAX6. The results are illustrated in FIGS. 13 to 17.
In the graphs in FIGS. 13, 14 15, 16 and 17 the value 1 was set relative to the expression level of the gene in the control (no compound) samples. […] This experiment allowed the effect of the EHNA-related compounds to be measured directly in comparison to EHNA. […] Those which had on effect, to these levels, on either PAX6 or NANOG were considered to have a partial-EHNA effect.

CCCCCC[C@@H]([C@@H](C)O)n1cnc2c(OC)ncnc21.Cl [HWC15, erythro-3-(6-methoxy-9H-purin-9-yl)nonan-2-ol hydrochloride]
NO EHNA EFFECT: X

CCCCCCC(C(C)O)n1cnc2c(SC)ncnc21 (stereo not drawn) [HWC25, erythro-3-[6-(methylthio)-9H-purin-9-yl]nonan-2-ol]
Full EHNA effect: X

CCCCCC[C@@H]([C@@H](C)O)n1cnc2cnccc21 [HWC8, erythro-3-(1H-imidazo[4,5-c]pyridin-1-yl)nonan-2-ol]
PARTIAL EHNA EFFECT (PAX6): X (Those which had on effect, to these levels, on either PAX6 or NANOG were considered to have a partial-EHNA effect)

COCCOCCn1ncc2c(N)ncnc21 [HWC34, 1-[2-(2-methoxyethoxy)ethyl]-1H-pyrazolo[3,4-d]pyrimidin-4-amine]
PARTIAL EHNA EFFECT (PAX6): X (Those which had on effect, to these levels, on either PAX6 or NANOG were considered to have a partial-EHNA effect)

CCCCCCC(C(C)O)n1cnc2c(NN)ncnc21 (stereo not drawn) [HWC27, erythro-3-(6-hydrazinyl-9H-purin-9-yl)nonan-2-ol]
PARTIAL EHNA EFFECT (PAX6): X (Those which had on effect, to these levels, on either PAX6 or NANOG were considered to have a partial-EHNA effect)

CCCCCC[C@@H]([C@@H](C)O)n1cnc2c(N)ncnc21 [HWC52, (2R,3S)-3-(6-amino-9H-purin-9-yl)nonan-2-ol]
PARTIAL EHNA EFFECT (PAX6): X (Those which had on effect, to these levels, on either PAX6 or NANOG were considered to have a partial-EHNA effect)

CCCCCC[C@@H]([C@@H](C)O)n1cnc2c(N)nccc21.Cl [HWC9, erythro-3-(4-Amino-1H-imidazo[4,5-c]pyridin-1-yl)nonan-2-ol hydrochloride]
PARTIAL EHNA EFFECT (PAX6): X (Those which had on effect, to these levels, on either PAX6 or NANOG were considered to have a partial-EHNA effect)

CCCCCCCCn1cc2c(N)ncnc2n1.Cl [HWC41, 2-octyl-2H-pyrazolo[3,4-d]pyrimidin-4-amine hydrochloride]
Full EHNA effect: X

CCCCCC[C@@H](O)[C@H](C)n1cnc2c(N)ncnc21 [HWC50, (2S,3R)-2-(6-amino-9H-purin-9-yl)nonan-3-ol]
PARTIAL EHNA EFFECT (PAX6): X (Those which had on effect, to these levels, on either PAX6 or NANOG were considered to have a partial-EHNA effect)

CCCCCCC(C(C)O)n1nnc2cnccc21 (racemic) [HWC54, (rac)-erythro-3-(1H-[1,2,3]triazolo[4,5-c]pyridin-1-yl)nonan-2-ol]
NO EHNA EFFECT: X

CCCCCCC(C(C)O)n1c(C)nc2c(N)ncnc21.Cl (stereo not drawn) [HWC24, erythro-3-(6-Amino-8-methyl-9H-purin-9-yl)nonan-2-ol hydrochloride]
PARTIAL EHNA EFFECT (PAX6): X (Those which had on effect, to these levels, on either PAX6 or NANOG were considered to have a partial-EHNA effect)

CCCCCC[C@@H]([C@@H](C)O)n1cnc(C(=O)NC)c1 [HWC7, erythro-1-(2-hydroxynonan-3-yl)-N-methyl-1H-imidazole-4-carboxamide]
NO EHNA EFFECT: X

CCC[C@H]([C@H](C)O)n1cnc2c(N)ncnc21 [HWC60, (2S,3R)-3-(6-Amino-9H-purin-9-yl)hexan-2-ol]
NO EHNA EFFECT: X

COCCOCCn1cc2c(N)ncnc2n1 [HWC35, 2-[2-(2-methoxyethoxy)ethyl]-2H-pyrazolo[3,4-d]pyrimidin-4-amine]
PARTIAL EHNA EFFECT (PAX6): X (Those which had on effect, to these levels, on either PAX6 or NANOG were considered to have a partial-EHNA effect)

CCCCCC[C@H]([C@H](C)O)n1cnc2c(OC)ncnc21 [HWC47, (2S,3R)-3-(6-methoxy-9H-purin-9-yl)nonan-2-ol]
NO EHNA EFFECT: X

CCCCCC[C@H](O)[C@@H](C)n1cnc2c(N)ncnc21 [HWC48, (2R,3S)-2-(6-amino-9H-purin-9-yl)nonan-3-ol]
PARTIAL EHNA EFFECT (PAX6): X (Those which had on effect, to these levels, on either PAX6 or NANOG were considered to have a partial-EHNA effect)

CCCCCC[C@H](O)[C@@H](C)n1cnc2c(OC)ncnc21 [HWC49, (2R,3S)-2-(6-methoxy-9H-purin-9-yl)nonan-3-ol]
NO EHNA EFFECT: X
